Test [1] can be described thus: Cytotoxicity against human 22Rv1 cells harboring AR H874Y mutant assessed as decrease in cell viability after 72 hrs by MTT assay. The test is classed as functional, cell-based, CWR22R. Particulars: 22Rv1, 72 h. In general terms: Formazan colour is commonly taken as a measure of viable cells.
The nature of test [2]: Cytotoxicity against human DU145 cells assessed as decrease in cell viability after 72 hrs by MTT assay. To be noted: DU-145, 72 h. The test is classed as functional, cell-based.
A short description of test [3]: Cytotoxicity against human C4-2B cells harboring AR T877A mutant assessed as decrease in cell viability after 72 hrs by MTT assay. In kind it is functional, cell-based. To be noted: LNCaP C4-2B.
Test [4] in a line: Cytotoxicity against human LNCAP cells harboring AR T877A mutant assessed as decrease in cell viability after 72 hrs by MTT assay. In kind it is functional, cell-based.
Test [5] can be described thus: Cytotoxicity against human PC3 cells assessed as decrease in cell viability after 72 hrs by MTT assay. To be noted: PC-3, 72 h. In kind it is functional, cell-based.
A short description of test [6]: Antiproliferative activity against human SGC7901 cells. Particulars: SGC-7901. The test is classed as functional, cell-based.
In test [7] the test system is MDA-MB-435. The test can be described thus: Inhibition of clone formation in human MDA-MB-435 cells after 48 hrs relative to control. The test is classed as functional.
Test [8] in a line: Growth inhibition of human MDA-MB-435 cells at 200 uM after 7 days relative to control. The test is classed as functional. To be noted: MDA-MB-435, 168 h, read-out: GI.
Test [9] concerns MCF7. Kind of test: Inhibition of cell mitosis in human MCF7 cells after 48 hrs relative to control. The test is classed as functional.
Test [10] can be described thus: Growth inhibition of human SGC7901 cells at 100 uM after 24 to 48 hrs by MTT assay relative to control. In kind it is functional. Particulars: SGC-7901, read-out: GI.
Test [11] concerns MCF7. The test can be described thus: Induction of apoptosis in human MCF7 cells assessed as inhibition of DNA synthesis at 48 hrs relative to control. The test is classed as functional.
The nature of test [12]: Growth inhibition of human SGC7901 cells at 100 uM after 8 days by MTT assay relative to control. The test is classed as functional. To be noted: SGC-7901, 192 h, read-out: GI.
Test [13] is described as follows: Antiproliferative activity against human DU145 cells after 72 hrs by flow cytometry. In kind it is functional, cell-based. To be noted: DU-145, 72 h. (In general: In flow cytometry, cells or beads pass a laser one at a time.)
Test [14] can be described thus: Growth inhibition of human SGC7901 cells at 200 uM after 24 to 48 hrs by MTT assay relative to control. To be noted: SGC-7901, read-out: GI. The test is classed as functional.
A short description of test [15]: Growth inhibition of human SGC7901 cells at 200 uM after 8 days by MTT assay relative to control. In kind it is functional. Particulars: SGC-7901, 192 h, read-out: GI.
The test system of test [16] is Rattus norvegicus. Kind of test: Antitumor activity against DMBA-induced mammary carcinogenesis in Sprague-Dawley rat assessed as inhibition of tumor formation at 9 mmol/kg administered with AIN-76A diet treated 2 weeks prior to DMBA addition for 24 weeks by hematoxylin and eosin staining based microscopic analysis relative to DMBA treated control. The test is classed as functional.

A short description of test [17]: Growth inhibition of human SGC7901 cells at 25 uM after 8 days by MTT assay relative to control. Particulars: SGC-7901, 192 h, read-out: GI. The test is classed as functional.
Test [18] can be described thus: Antiproliferative activity against human MCF7 cells. In kind it is functional, cell-based.
Test [19] in a line: Growth inhibition of human MDA-MB-435 cells at 25 uM after 7 days relative to control. In kind it is functional. To be noted: MDA-MB-435, 168 h, read-out: GI.
A short description of test [20]: Antiproliferative activity against human LNCAP cells after 72 hrs by flow cytometry. The test is classed as functional, cell-based.
Test [21] deals with MDA-MB-435. Kind of test: Inhibition of cell mitosis in human MDA-MB-435 cells after 48 hrs relative to control. In kind it is functional.
A short description of test [22]: Growth inhibition of human MDA-MB-435 cells at 50 uM after 7 days relative to control. In kind it is functional. To be noted: MDA-MB-435, 168 h, read-out: GI.
Test [23] can be described thus: Growth inhibition of human SGC7901 cells at 50 uM after 24 to 48 hrs by MTT assay relative to control. The test is classed as functional. To be noted: SGC-7901, read-out: GI.
Test [24] can be described thus: Growth inhibition of human MDA-MB-435 cells after 7 days relative to control. In kind it is functional, cell-based. To be noted: MDA-MB-435, 168 h.
In test [25] the test system is Rattus norvegicus. Kind of test: Antitumor activity against DMBA-induced mammary carcinogenesis in Sprague-Dawley rat assessed as tumor incidence at 36 mmol/kg administered with AIN-76A diet treated 2 weeks prior to DMBA addition for 24 weeks by hematoxylin and eosin staining based microscopic analysis (reference value: 82.1%). In kind it is functional.
The nature of test [26]: Growth inhibition of human SGC7901 cells after 24 to 48 hrs by MTT assay. The test is classed as functional, cell-based. To be noted: SGC-7901.
The nature of test [27]: Growth inhibition of human SGC7901 cells at 50 uM after 8 days by MTT assay relative to control. The test is classed as functional. Particulars: SGC-7901, 192 h, read-out: GI.
Test [28] is described as follows: Growth inhibition of human MDA-MB-435 cells at 100 uM after 7 days relative to control. In kind it is functional. Particulars: MDA-MB-435, 168 h, read-out: GI.
Test [29] deals with Rattus norvegicus. The test can be described thus: Antitumor activity against DMBA-induced mammary carcinogenesis in Sprague-Dawley rat assessed as tumor incidence at 9 mmol/kg administered with AIN-76A diet treated 2 weeks prior to DMBA addition for 24 weeks by hematoxylin and eosin staining based microscopic analysis (reference value: 82.1%). The test is classed as functional.

Test [30] has as its system MDA-MB-435. The test can be described thus: Induction of apoptosis in human MDA-MB-435 cells assessed as inhibition of DNA synthesis after 48 hrs relative to control. In kind it is functional.
Test [31] can be described thus: Antiproliferative activity against human PC3 cells after 72 hrs by flow cytometry. The test is classed as functional, cell-based. To be noted: PC-3, 72 h.
Test [32] can be described thus: Growth inhibition of human SGC7901 cells at 25 uM after 24 to 48 hrs by MTT assay relative to control. Particulars: SGC-7901, read-out: GI. In kind it is functional.
The subject of test [33] is Rattus norvegicus. The test can be described thus: Antitumor activity against DMBA-induced mammary carcinogenesis in Sprague-Dawley rat assessed as inhibition of tumor formation at 36 mmol/kg administered with AIN-76A diet treated 2 weeks prior to DMBA addition for 24 weeks by hematoxylin and eosin staining based microscopic analysis relative to DMBA treated control. In kind it is functional.

The test system of test [34] is Rattus norvegicus. The test can be described thus: Antitumor activity against DMBA-induced mammary carcinogenesis in Sprague-Dawley rat assessed as inhibition of tumor formation at 18 mmol/kg administered with AIN-76A diet treated 2 weeks prior to DMBA addition for 24 weeks by hematoxylin and eosin staining based microscopic analysis relative to DMBA treated control. In kind it is functional.

The subject of test [35] is Rattus norvegicus. The test can be described thus: Antitumor activity against DMBA-induced mammary carcinogenesis in Sprague-Dawley rat assessed as tumor incidence at 18 mmol/kg administered with AIN-76A diet treated 2 weeks prior to DMBA addition for 24 weeks by hematoxylin and eosin staining based microscopic analysis (reference value: 82.1%). The test is classed as functional.

Test [36] is described as follows: Cytotoxicity against human MDA PCa 2b cells harboring AR T877A/L701H double mutant assessed as decrease in cell viability after 72 hrs by MTT assay. In kind it is functional, cell-based.

As to `COc1cc(/C=C(\C(=O)/C=C/C2=C(C)C(O)CCC2(C)C)C(=O)/C=C/c2ccc(O)c(OC)c2)ccc1O` (stereo not given), the 50% inhibitory concentration (IC50) in test [1], in test [2], in test [3], in test [4] and in test [5] was 1.2 to 5.6 µM each time.

As for `CC(=O)/C=C/C1=C(C)CCCC1(C)C` [BETA-IONONE], the IC50 was determined as 175 µM in test [6]; 210 µM in test [13]; 104 µM in test [18]; 130 µM in [20]; 42 µM in test [24]; 89 µM in [26]. The compound further showed an IC50 in [31] of 130 µM. The “inhibition (INH)” value in test [7] is on record as 95.55%; in [9] it was 87.79%; in test [11] it was 35.1 - 81.89%; in [21], 75.12%; in test [30], 78.35%. Also, the inhibition of growth at 200 µM in test [8] was determined as 84.9%; in test [14], 94.2%; in test [15], 90.1%. Also, the inhibition of growth at 100 µM in test [10] came to 78.2%; in test [12], 74.4%; in test [28], 81.5%. In addition, the inhibition in vivo at 9000 µmol/kg in test [16] was determined as 35.4%. The inhibition of growth at 25 µM in test [17] is 25.9%; in test [19] it was 45.6%; in test [32] it was 12%. Moreover, the inhibition of growth at 50 µM worked out at 71.2% in test [22], 30.6% in test [23] and 28.2% in test [27]. The Activity in test [25] is reported as 10%; in [29], 53.3%; in [35], 25.9%. For the same compound, the inhibition in vivo at 36000 µmol/kg in test [33] came to 87.8%. The inhibition in vivo at 18000 µmol/kg in [34] came to 68.3%.

Consider `CC1=C(/C=C/C(=O)/C=C/c2csc3ccccc23)C(C)(C)CCC1O` (stereo not given), for which the IC50 in test [1], in [36], in [3], in test [4] and in [5] was 0.57 to 2 µM each time.

Broadly, the IC50 is the concentration needed to halve the response being measured. The term inhibition in vivo denotes the percentage by which the read-out fell short of the control.

Source of the values: ChEMBL document CHEMBL3871262, “β-Ionone and its analogs as promising anticancer agents” (Eur J Med Chem, 2016).
